Experimental data as given in PubChem BioAssay AID330 (DTP/NCI, 2004).
Values joined by “and” are separate entries in the source; they are usually repeats but may differ in a detail not shown here. Equal values may be shown once. Inconclusive results and toxic doses are left out. The calls were made as follows: active = survival T/C of 150% or more; inactive = T/C below 125% in these data.

System: P388 leukemia ip, CD2F1 mice, survival T/C
Experiment: NCI In Vivo Anticancer Drug Screen. Data for tumor model P388 Leukemia (intraperitoneal) in CD2F1 (CDF1) mice
Conditions: endpoint: median survival time, higher = longer survival
Method in brief: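 Mice carrying the transplanted tumor received test compound or vehicle. Survival was recorded in each group, and the value is the treated-group measurement divided by that of the vehicle-treated control group.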

[1] = dose: 100.0 mg/kg/injection, schedule: Q01DX001 (ip), vehicle: saline with Tween-80
[2] = dose: 200.0 mg/kg/injection, schedule: Q01DX001 (ip), vehicle: saline with Tween-80
[3] = dose: 400.0 mg/kg/injection, schedule: Q01DX001 (ip), vehicle: saline with Tween-80
[4] = dose: 50.0 mg/kg/injection, schedule: Q01DX009 (ip), vehicle: saline with Tween-80
[5] = dose: 100.0 mg/kg/injection, schedule: Q01DX009 (ip), vehicle: saline with Tween-80
[6] = dose: 200.0 mg/kg/injection, schedule: Q01DX009 (ip), vehicle: saline with Tween-80
[7] = dose: 60.0 mg/kg/injection, schedule: Q01DX005 (ip), vehicle: saline with Tween-80
[8] = dose: 120.0 mg/kg/injection, schedule: Q01DX005 (ip), vehicle: saline with Tween-80
[9] = dose: 12.5 mg/kg/injection, schedule: Q01DX009 (ip), vehicle: other
[10] = dose: 25.0 mg/kg/injection, schedule: Q01DX009 (ip), vehicle: other
[11] = dose: 50.0 mg/kg/injection, schedule: Q01DX009 (ip), vehicle: other
[12] = dose: 100.0 mg/kg/injection, schedule: Q01DX009 (ip), vehicle: other
[13] = dose: 50.0 mg/kg/injection, schedule: Q01DX005 (ip), vehicle: saline with Tween-80
[14] = dose: 100.0 mg/kg/injection, schedule: Q01DX005 (ip), vehicle: saline with Tween-80
[15] = dose: 50.0 mg/kg/injection, schedule: Q01DX009 (ip), vehicle: Klucel (hydroxypropylcellulose) (HPC)
[16] = dose: 100.0 mg/kg/injection, schedule: Q01DX009 (ip), vehicle: Klucel (hydroxypropylcellulose) (HPC)
[17] = dose: 200.0 mg/kg/injection, schedule: Q01DX009 (ip), vehicle: Klucel (hydroxypropylcellulose) (HPC)
[18] = dose: 200.0 mg/kg/injection, schedule: Q04DX003 (ip), vehicle: Klucel (hydroxypropylcellulose) (HPC)

Measured: T/C

C=CCC(CCCCCCCCCCCCC)C(=O)O (stereo not drawn)
inactive: [1] 104 % of control | [2] 95 % of control | [3] 91 % of control

CCN(CC)C(=S)Sc1nsc(SC(=S)N(CC)CC)c1C#N
inactive: [4] 94 % of control | [5] 94 % of control | [6] 94 % of control

Cc1nccn1Cc1ccc(Cl)cc1Cl
inactive: [7] 95 % of control | [8] 95 % of control

C=CCCC(OC(C)C)OC(C)C
inactive: dose: 50.0 mg/kg/injection, schedule: Q01DX009 (ip), vehicle: saline 98 % of control | dose: 100.0 mg/kg/injection, schedule: Q01DX009 (ip), vehicle: saline 99 % of control | dose: 200.0 mg/kg/injection, schedule: Q01DX009 (ip), vehicle: saline 108 % of control

COc1cc(Cc2ccc3c(c2)OCO3)cc(OC)c1OC
inactive: dose: 100.0 mg/kg/injection, schedule: Q01DX001 (ip), vehicle: saline 102 % of control | dose: 200.0 mg/kg/injection, schedule: Q01DX001 (ip), vehicle: saline 102 % of control | dose: 400.0 mg/kg/injection, schedule: Q01DX001 (ip), vehicle: saline 99 % of control

CC1(OC(=O)c2ccc(F)cc2)CC(C)(C)[N+]([O-])=N1 (stereo not drawn)
inactive: [9] 113 % of control | [10] 101 % of control | [11] 118 % of control | [12] 118 % of control | dose: 200.0 mg/kg/injection, schedule: Q01DX009 (ip), vehicle: other 123 % of control

COc1ccc2c(c1)CCc1cc(OC)ccc1/[N+]([O-])=[N+]\2[O-]
inactive: [7] 93 % of control | [8] 93 % of control | dose: 240.0 mg/kg/injection, schedule: Q01DX005 (ip), vehicle: saline with Tween-80 101 % of control

Nc1nc(N)c2[nH]cnc2n1
inactive: dose: 6.25 mg/kg/injection, schedule: Q01DX009 (ip), vehicle: other 111 % of control | [9] 100 % of control | [10] 104 % of control | [11] 95 % of control | [4] 90 % of control | dose: 50.0 mg/kg/injection, schedule: Q04DX003 (ip), vehicle: saline with Tween-80 108 % of control | [12] 106 % of control | [5] 90 % of control | dose: 100.0 mg/kg/injection, schedule: Q04DX003 (ip), vehicle: saline with Tween-80 108 % of control | [6] 100 % of control | dose: 200.0 mg/kg/injection, schedule: Q04DX003 (ip), vehicle: saline with Tween-80 108 % of control | dose: 400.0 mg/kg/injection, schedule: Q01DX009 (ip), vehicle: saline with Tween-80 90 % of control | dose: 400.0 mg/kg/injection, schedule: Q04DX003 (ip), vehicle: saline with Tween-80 91 % of control

CCCCCCOC(=O)c1ccc(OC)cc1
inactive: [4] 104 % of control | [5] 106 % of control | [6] 108 % of control

CC1CC(=O)NC(N)=N1 (stereo not drawn)
inactive: dose: 50.0 mg/kg/injection, schedule: Q01DX005 (ip), vehicle: saline 98 % of control | dose: 100.0 mg/kg/injection, schedule: Q01DX005 (ip), vehicle: saline 108 % of control | dose: 200.0 mg/kg/injection, schedule: Q01DX005 (ip), vehicle: saline 104 % of control

C=C(C)c1nc(Oc2ccccc2)nc(Oc2ccccc2)n1
inactive: dose: 200.0 mg/kg/injection, schedule: Q01DX001 (ip), vehicle: Klucel (hydroxypropylcellulose) (HPC) 88 % of control | dose: 400.0 mg/kg/injection, schedule: Q01DX001 (ip), vehicle: Klucel (hydroxypropylcellulose) (HPC) 89 % of control

O=[n+]1c2c(n([O-])c3cc(Cl)c(Cl)cc31)CCC2
inactive: [7] 95 % of control | [8] 95 % of control

O=S1(=O)CC(N2CCCCC2)C2=C(O1)c1ccccc1SC2 (stereo not drawn)
inactive: [4] 88 % of control | [5] 92 % of control

CC12Cc3cnoc3C=C1CCC1C2CCC2(C)C1CCC2(C)O (stereo not drawn)
inactive: [13] 93 % of control | [14] 86 % of control

O=c1/c(=C/C=C/c2ccccc2)sc2nc3ccccc3n12
inactive: [13] 107 % of control | [14] 106 % of control | dose: 200.0 mg/kg/injection, schedule: Q01DX005 (ip), vehicle: saline with Tween-80 92 % of control

CC(O)CCC(=O)c1ccoc1 (stereo not drawn)
inactive: dose: 1.87 mg/kg/injection, schedule: Q01DX005 (ip), vehicle: saline 97 % of control | dose: 3.75 mg/kg/injection, schedule: Q01DX005 (ip), vehicle: saline 100 % of control | dose: 7.5 mg/kg/injection, schedule: Q01DX005 (ip), vehicle: saline 100 % of control and 96 % of control | dose: 15.0 mg/kg/injection, schedule: Q01DX005 (ip), vehicle: saline 100 % of control and 93 % of control | dose: 30.0 mg/kg/injection, schedule: Q01DX005 (ip), vehicle: saline 109 % of control

O=C(O)c1ccccc1N1C(=O)CC2(CCCC2)C1=O
inactive: [15] 101 % of control | [16] 98 % of control | [17] 94 % of control

CC(=O)SCC1C(=O)CC(C)(C)CC1=O
inactive: [18] 89 % of control

Clc1cc2c(c3ncccc13)OCN(Cc1ccccc1)C2
inactive: dose: 100.0 mg/kg/injection, schedule: Q04DX003 (ip), vehicle: Klucel (hydroxypropylcellulose) (HPC) 91 % of control | [18] 92 % of control | dose: 400.0 mg/kg/injection, schedule: Q04DX003 (ip), vehicle: Klucel (hydroxypropylcellulose) (HPC) 92 % of control

Nc1ccc2nc[nH]c2c1
inactive: dose: 25.0 mg/kg/injection, schedule: Q04DX002 (ip), vehicle: Klucel (hydroxypropylcellulose) (HPC) 101 % of control | dose: 50.0 mg/kg/injection, schedule: Q04DX002 (ip), vehicle: Klucel (hydroxypropylcellulose) (HPC) 104 % of control | dose: 100.0 mg/kg/injection, schedule: Q04DX002 (ip), vehicle: Klucel (hydroxypropylcellulose) (HPC) 101 % of control and 90 % of control

CCOC(=O)C1=C(c2ccccc2)N=c2ccccc2=S1C (stereo not drawn)
inactive: dose: 15.0 mg/kg/injection, schedule: Q01DX005 (ip), vehicle: saline with Tween-80 96 % of control | dose: 30.0 mg/kg/injection, schedule: Q01DX005 (ip), vehicle: saline with Tween-80 99 % of control | [7] 98 % of control and 94 % of control

COc1cc([N+](=O)[O-])ccc1C
inactive: dose: 100.0 mg/kg/injection, schedule: Q04DX003 (ip), vehicle: other 104 % of control | dose: 200.0 mg/kg/injection, schedule: Q04DX003 (ip), vehicle: other 100 % of control | dose: 400.0 mg/kg/injection, schedule: Q04DX003 (ip), vehicle: other 100 % of control

c1ccc2c(C[Se][Se]Cc3cccc4ccccc34)cccc2c1
inactive: [16] 90 % of control | [17] 90 % of control

Cc1nc2ccccc2c(=O)n1-c1ccc(-c2nnc(Sc3nnc(-c4ccc(-n5c(C)nc6ccccc6c5=O)cc4)n3-c3ccccc3)n2-c2ccccc2)cc1
inactive: dose: 50.0 mg/kg/injection, schedule: Q01DX005 (ip), vehicle: Klucel (hydroxypropylcellulose) (HPC) 102 % of control | dose: 100.0 mg/kg/injection, schedule: Q01DX005 (ip), vehicle: Klucel (hydroxypropylcellulose) (HPC) 101 % of control | dose: 200.0 mg/kg/injection, schedule: Q01DX005 (ip), vehicle: Klucel (hydroxypropylcellulose) (HPC) 90 % of control

CC1(C)NNC(=S)NC1=O
inactive: [15] 99 % of control | [4] 100 % of control | [16] 97 % of control | [5] 113 % of control | [17] 94 % of control | [6] 97 % of control

CC/C(=C/C(F)(F)C(F)(F)C(F)(F)F)[N+](=O)[O-]
inactive: dose: 25.0 mg/kg/injection, schedule: Q01DX009 (ip), vehicle: Klucel (hydroxypropylcellulose) (HPC) 96 % of control | [15] 104 % of control | [16] 102 % of control

C[CH2][Sn]([Cl])([Cl])[CH2]C.c1ccc2nc(-c3ccc4ccccc4n3)ccc2c1
inactive: dose: 60.0 mg/kg/injection, schedule: Q01DX005 (ip), vehicle: Klucel (hydroxypropylcellulose) (HPC) 106 % of control | dose: 120.0 mg/kg/injection, schedule: Q01DX005 (ip), vehicle: Klucel (hydroxypropylcellulose) (HPC) 106 % of control | dose: 240.0 mg/kg/injection, schedule: Q01DX005 (ip), vehicle: Klucel (hydroxypropylcellulose) (HPC) 103 % of control

O=c1c(CSc2c(-c3ccccc3)c(=O)c2=O)c(-c2ccccc2)c1=O
inactive: [1] 101 % of control | [2] 104 % of control | [3] 95 % of control
